The test system of test [1] is Mus musculus. Briefly: Antiinflammatory activity in ICR mouse assessed as inhibition of TPA-induced ear edema by measuring reduction in weight of ear punches applied topically measured 4 hrs post TPA-challenge relative to control. It counts as functional.
For test [2], the system named is Mus musculus. Briefly: Antiinflammatory activity in TPA-induced ICR mouse ear edema model assessed as reduction in number of neutrophils at 5.7 mg/ear applied topically measured 4 hrs post-TPA challenge by giemsa staining-based microscopic method. It counts as functional, organism-based.
For test [3], the system named is Mus musculus. Briefly: Antiinflammatory activity in TPA-induced ICR mouse ear edema model assessed as reduction in monocyte content at 5.7 mg/ear applied topically by giemsa staining-based microscopic method. It counts as functional, organism-based. To be noted: TDE = time-dependent effect.
Test [4] concerns Mus musculus. In words: Antiinflammatory activity in TPA-induced ICR mouse ear edema model assessed as reduction in neutrophil content AUC at 5.7 mg/ear applied topically measured 4 hrs post-TPA challenge by giemsa staining-based microscopic method relative to control. More on the design: scale not given: the % may be the effect or the level left. Type of test: functional.
Test [5] deals with Mus musculus. In words: Potency index, ratio of indomethacin ED50 to test compound ED50 for antiinflammatory activity in ICR mouse assessed as inhibition of TPA-induced ear edema by measuring reduction in weight of ear punches applied topically. It counts as functional.
The test system of test [6] is Mus musculus. Briefly: Antiinflammatory activity in ICR mouse assessed as inhibition of TPA-induced ear edema by measuring reduction in weight of ear punches applied topically measured 4 hrs post TPA-challenge. It counts as functional.
For test [7], the system named is Mus musculus. In words: Antiinflammatory activity in TPA-induced ICR mouse ear edema model assessed as reduction in neutrophil content at 5.7 mg/ear applied topically by giemsa staining-based microscopic method. It counts as functional, organism-based. The note with it: TDE = time-dependent effect.
Test [8] has as its system Mus musculus. In words: Antiinflammatory activity in TPA-induced ICR mouse ear edema model assessed as reduction in monocytes content AUC at 5.7 mg/ear applied topically measured 4 hrs post TPA-challenge giemsa staining-based microscopic method. It counts as functional. More on the design: scale not given: the % may be the effect or the level left.
The test system of test [9] is Mus musculus. Briefly: Antiinflammatory activity in TPA-induced ICR mouse ear edema model assessed as reduction in monocytes content AUC at 10 mg/ear applied topically measured 4 hrs post TPA-challenge giemsa staining-based microscopic method. More on the design: scale not given: the % may be the effect or the level left. Type of test: functional.
For test [10], the system named is Mus musculus. Briefly: Antiinflammatory activity in TPA-induced ICR mouse ear edema model assessed as reduction in neutrophil content AUC at 10 mg/ear applied topically measured 4 hrs post-TPA challenge by giemsa staining-based microscopic method relative to control. It counts as functional. More on the design: scale not given: the % may be the effect or the level left.

The subject of test [11] is Mus musculus. Briefly: Antiinflammatory activity in TPA-induced ICR mouse ear edema model assessed as reduction in monocyte content at 10 mg/ear applied topically by giemsa staining-based microscopic method. It counts as functional, organism-based. To be noted: TDE = time-dependent effect.
Test [12] has as its system Mus musculus. In words: Antiinflammatory activity in TPA-induced ICR mouse ear edema model assessed as reduction in neutrophil content at 10 mg/ear applied topically by giemsa staining-based microscopic method. Type of test: functional, organism-based. To be noted: TDE = time-dependent effect.
Test [13] deals with Mus musculus. Briefly: Antiinflammatory activity in TPA-induced ICR mouse ear edema model assessed as reduction in number of neutrophils at 10 mg/ear applied topically measured 4 hrs post-TPA challenge by giemsa staining-based microscopic method. It counts as functional, organism-based.
For test [14], the system named is Mus musculus. In words: Antiinflammatory activity in TPA-induced ICR mouse ear edema model assessed as reduction in neutrophil content AUC at 3 mg/ear applied topically measured 4 hrs post-TPA challenge by giemsa staining-based microscopic method relative to control. Type of test: functional. More on the design: scale not given: the % may be the effect or the level left.

Test [15] relates to Mus musculus. Briefly: Antiinflammatory activity in TPA-induced ICR mouse ear edema model assessed as reduction in neutrophil content at 3 mg/ear applied topically by giemsa staining-based microscopic method. Type of test: functional, organism-based. The note with it: TDE = time-dependent effect.
The test system of test [16] is Mus musculus. In words: Antiinflammatory activity in TPA-induced ICR mouse ear edema model assessed as reduction in monocytes content AUC at 3 mg/ear applied topically measured 4 hrs post TPA-challenge giemsa staining-based microscopic method. It counts as functional. More on the design: scale not given: the % may be the effect or the level left.
The subject of test [17] is Mus musculus. Briefly: Antiinflammatory activity in TPA-induced ICR mouse ear edema model assessed as reduction in monocyte content at 3 mg/ear applied topically by giemsa staining-based microscopic method. Type of test: functional, organism-based. The note with it: TDE = time-dependent effect.
In test [18] the test system is Mus musculus. In words: Antiinflammatory activity in TPA-induced ICR mouse ear edema model assessed as reduction in number of neutrophils at 3 mg/ear applied topically measured 4 hrs post-TPA challenge by giemsa staining-based microscopic method. It counts as functional, organism-based.
For test [19], the system named is Mus musculus. Briefly: Antiinflammatory activity in TPA-induced ICR mouse ear edema model assessed as reduction in monocytes content AUC at 1 mg/ear applied topically measured 4 hrs post TPA-challenge giemsa staining-based microscopic method. It counts as functional. More on the design: scale not given: the % may be the effect or the level left.
Test [20] concerns Mus musculus. In words: Antiinflammatory activity in TPA-induced ICR mouse ear edema model assessed as reduction in number of neutrophils at 1 mg/ear applied topically measured 4 hrs post-TPA challenge by giemsa staining-based microscopic method. Type of test: functional, organism-based.
For test [21], the system named is Mus musculus. Briefly: Antiinflammatory activity in ICR mouse assessed as inhibition of TPA-induced ear edema by measuring reduction in weight of ear punches up to 1.25 mg/ear applied topically measured 4 hrs post TPA-challenge relative to control. Type of test: functional.
Test [22] deals with Mus musculus. In words: Antiinflammatory activity in TPA-induced ICR mouse ear edema model assessed as reduction in neutrophil content AUC at 1 mg/ear applied topically measured 4 hrs post-TPA challenge by giemsa staining-based microscopic method relative to control. It counts as functional. More on the design: scale not given: the % may be the effect or the level left.

Active and inactive are the calls of the source. The calls are words filed in the database; no cut-off is given here.

As to `COP(=O)(OC)C(C)(COC(C)=O)N[C@@H](C)c1ccccc1` (mixture of isomers), the “%max” value in the test with Mus musculus [1] was 96.1%. Also, the outcome in the test with Mus musculus [2] was Active. The Activity entry in the test with Mus musculus [3] was “Tde”; with Mus musculus [4], 46.7%; in the test on Mus musculus [7], “Tde”; in the test on Mus musculus [8], 18.9 - 34.1%. Besides, the “Ratio ED50” value in the test with Mus musculus [5] is recorded as 0.67. Besides, the ED50 in the test on Mus musculus [6] is 0.73 to 1.37 mg. For the same molecule, in the test on Mus musculus [6], the inhibition result is “Dose-dependent effect”.
On to `COP(=O)(OC)C(C)(CO)N[C@@H](C)c1ccccc1` (mixture of isomers), for which the “%max” value in the test on Mus musculus [1] is given as 95.6%. Moreover, the “Ratio ED50” value in the test on Mus musculus [5] amounted to 0.46. In the test with Mus musculus [6], the ED50 lay in the range of 0.95 to 1.05 mg and the inhibition result was “Dose-dependent effect”.
Take `COP(=O)(OC)C(C)(COC(C)=O)NCc1ccccc1` (racemic): the “%max” value in the test on Mus musculus [1] was found to be 97.6%. Besides, the Activity was 18.9 - 34.1% with Mus musculus [9], 63% in the test with Mus musculus [10], “Tde” with Mus musculus [11] and “Tde” in the test with Mus musculus [12]. Also, in the test on Mus musculus [5], the “Ratio ED50” value was 0.33. Further, in the test with Mus musculus [6], the ED50 lay in the range of 0.68 to 1.46 mg. The inhibition result in the test with Mus musculus [6] is “Dose-dependent effect”. In addition, the outcome in the test with Mus musculus [13] was Active.
Turning to `COc1ccc(CCNC(C)(COC(C)=O)P(=O)(OC)OC)cc1OC` (racemic), the “%max” value in the test with Mus musculus [1] worked out at 97%. In addition, the Activity with Mus musculus [9] is 18.9 - 34.1%; in the test on Mus musculus [10], 62.6%; in the test on Mus musculus [11], “Tde”; in the test with Mus musculus [12] it was “Tde”. Besides, the “Ratio ED50” value in the test with Mus musculus [5] came out at 0.37. The ED50 in the test on Mus musculus [6] lay within 0.77 to 1.29 mg. Besides, the inhibition entry with Mus musculus [6] is “Dose-dependent effect”. The result in the test with Mus musculus [13] was Active.
On to `COc1ccc(CNC(C)(COC(C)=O)P(=O)(OC)OC)cc1` (racemic), for which the “%max” value in the test on Mus musculus [1] was 66.1%. Also, in the test on Mus musculus [5], the “Ratio ED50” value turned out to be 0.29. Further, the ED50 with Mus musculus [6] was 0.58 to 1.73 mg.
Regarding `C=CCNC(C)(COC(C)=O)P(=O)(OC)OC` (racemic), the “%max” value in the test with Mus musculus [1] is recorded as 74.3%. Also, the “Ratio ED50” value in the test on Mus musculus [5] was 0.28. In the test on Mus musculus [6], the ED50 lay in the range of 0.59 to 1.68 mg and the inhibition entry is “Dose-dependent effect”.
Taken in the same sequence, the figures for `COc1ccc(CCNC(C)(CO)P(=O)(OC)OC)cc1OC` (racemic) were 94.6%, 0.48, 0.99 to 1 mg and “Dose-dependent effect”.
`COP(=O)(OC)C(C)(CO)NCc1ccccc1` (racemic): in the test with Mus musculus [1], the “%max” value worked out at 81.6%. Further, the “Ratio ED50” value in the test on Mus musculus [5] amounted to 0.13. Further, in the test with Mus musculus [6], the ED50 was 0.28 to 3.63 mg and the inhibition entry is “Dose-dependent effect”.
Turning to `COP(=O)(OC)C(C)(COC(C)=O)NCC1CCCCC1` (racemic), in the test on Mus musculus [1], the “%max” value is on record as 93%. In addition, the Activity is 62.9% with Mus musculus [14], “Tde” with Mus musculus [15], 18.9 - 34.1% with Mus musculus [16] and “Tde” in the test with Mus musculus [17]. In addition, the “Ratio ED50” value in the test on Mus musculus [5] is 0.5. Further, the ED50 with Mus musculus [6] was 0.95 to 1.05 mg. For the same molecule, in the test on Mus musculus [6], the inhibition entry is “Dose-dependent effect”. In addition, in the test with Mus musculus [18], the result was Active.
Take `COP(=O)(OC)C(C)(O)COC(C)=O` (racemic): in the test with Mus musculus [1], the “%max” value came out at 47.2%. The “Ratio ED50” value in the test with Mus musculus [5] worked out at 0.04. Besides, the ED50 with Mus musculus [6] fell in the range of 0.1 to 10.14 mg.
In the case of `COc1ccc2c(c1)c(CC(=O)O)c(C)n2C(=O)c1ccc(Cl)cc1` [INDOMETHACIN], in the test on Mus musculus [1], the “%max” value was 99.3%. Moreover, the Activity came to 64.2% in the test on Mus musculus [19] and 57.7% with Mus musculus [22]. The outcome with Mus musculus [20] was Active. In addition, the ED50 in the test with Mus musculus [6] is given as 0.49 mg. Moreover, the inhibition result in the test on Mus musculus [6] is “Dose-dependent effect”. Further, the “inhibition (INH)” value in the test on Mus musculus [21] is given as 14.6 - 99.3%.

These data come from ChEMBL document CHEMBL4340505, “000Synthesis of new α-aminophosphonates: Evaluation as anti-inflammatory agents and QSAR studies” (2019).
